Measurements taken from patent US4912092A, “Methods for increasing extracellular adenosine and for stabilizing mast cells” (The Regents of the University of California, priority 1987, dated 1990).

Experiments:
[1] = system: HPRT- neuroblastoma cells; experiment: Adenosine excretion by ionophore-stimulated HPRT- neuroblastoma cells; format: cell-based; settings: for Concentration of Adenosine: HPRT-, AICA riboside 50 μM
Description: (§1) The history and properties of the cell line have been described by Hershfield et al. in Science, Vol. 197, p. 1284, 1977.
(§2) Catabolism of cellular ATP stores was stimulated by adding either 2-deoxyglucose or a calcium ionophore. At various times, the amount of adenosine released by the cells into the supernatant, or the amount of nucleotides remaining in the cells, was determined by mixing 30 μl of chilled 4.4N perchloric acid with 300 μl of supernatants, or by adding 300 μl of chilled 0.4N perchloric acid to the cells collected as pellets and centrifuging the mixtures at 500×G for 10 minutes at 4° C. […] 1245, 1975. Following centrifugation at 1500×G for three minutes at 4° C., the aqueous phase is removed and frozen at -20° C. until assayed for adenosine, inosine, or for nucleotides. Adenosine was evaluated isocratically on a C-18 microBondapak reverse phase column equilibrated with 4 millimolar potassium phosphate, (pH 3.4):acetonitrile 60% in water (95:5 v/v) buffer. Adenosine elutes at 8-10 minutes, and its identity was confirmed by its sensitivity to adenosine deaminase and by spiking with adenosine standards. The extracted samples from the cell pellet were analyzed for nucleotides by high pressure liquid chromatography on a Whatman Partisil-10 (SAX) column equilibrated with 10 millimolar potassium phosphate, pH 3.78, and eluted with a linear gradient to a 0.25 molar potassium phosphate, 0.5 molar KCl, pH 3.45. […] Peaks were quantitated by comparison with high pressure liquid chromatography analysis of suitable standards.
To induce ATP catabolism, the growth medium was replaced by medium containing micromolar amounts of the calcium ionophore A23187 and 1.0 μM deoxycoformycin.

[2] = system: human splenic lymphoblast cell line (WI-L2); experiment: Adenosine excretion by human lymphoblasts during ATP breakdown (2-deoxyglucose); format: cell-based
Description: as §1, §2
Cells were grown to about 0.5×10^6 cells/ml (mid-log phase) in FIG. 2 and to about 1.0×10^6 cells/ml (early stationary phase) in FIGS. 7-9.

[3] = system: isuprel-induced arrhythmias; experiment: Isoproterenol (isuprel)-induced arrhythmias; format: in vivo, rat; settings: 1000 mg/kg intraperitoneally
Description: Five minutes later both animals were anesthetized with 330 mg/kg of chloral hydrate injected intraperitoneally. Then a single EKG lead was attached to each rat for simultaneous recording of the paired rats' electrocardiograms. To produce arrhythmia, each rat was injected subcutaneously with isuprel […].
Beginning 30 minutes after isuprel introduction, the electrocardiograph recording paper speed was run (5 cm/sec) for 10 minutes to count the arrhythmic beats of both animals.

[4] = system: Mouse bone marrow-derived mast cells; format: cell-based; settings: 100 micromolar, A23187 at 1 μg/ml; 28.8% in its absence
Description: By preventing mast cell degranulation, it is possible to prevent or control a patient's allergic response. Bone marrow obtained from Balb/C mice femurs was cultured in a 1:1 mixture of Razin media and conditioned media, produced by co-culturing splenocytes from C57B1/6J and C3H mice in the presence of Concanavalin A as described by Razin et al. in the Proc. Natl. Acad. Sci. USA 28: 2559-2561, 1981. After weekly passaging and at least 15 days in tissue culture, the resulting cells were 90% pure mast cells and 95% viable as assessed by Trypan blue exclusion. Cells exposed to ribavirin in culture were washed three times prior to use in experiments. Parallel cultures of cells grown in media alone were used as controls for pharmacologically manipulated mast cells. Cell growth was assessed by counting cells at particular time points and comparing actual numbers of ribavirin-treated cells to numbers of cells grown in media alone.
β-hexosaminidase was chosen as a representative granule-associated, preformed mast cell mediator because it is easily quantitated, and its release nearly identically parallels that of histamine. Mouse bone marrow-derived mast cells were centrifuged at 200×g for 5 minutes, washed three times in Tyrode's buffer lacking divalent cations, sensitized for 30 minutes at 37° C. with anti-DNP ([…]) IgE (1 μg/10^6 cells) and challenged with either DNP-BSA antigen (175 ng/3×10^5 cells) or A23187 (10 μg/ml/3×10^5 cells) in 400 μl of complete Tyrode's buffer for 10 minutes at 37° C. Reaction mixtures were centrifuged at 200×g for 10 minutes, and supernatant and pellet β-hexosaminidase concentrations were assayed by the hydrolysis of p-nitrophenyl-β-D-glucosamide as described in Schwartz et al. in J. Immunol. […] Spontaneous β-hexosaminidase release was determined in unchallenged cells. The net % of β-hexosaminidase released is defined as follows: [formula] where [β-hex] is β-hexosaminidase and super. is supernatant. When exogenous adenosine was present in reaction mixtures, it was added simultaneously with the secretagogue.

How did the “Concentration of Adenosine” value ([1]; ionophore 0 μg/ml) turn out when `NC(=O)c1ncn([C@@H]2O[C@H](CO)[C@@H](O)[C@H]2O)c1N` [AICA riboside, 5-amino-4-imidazolecarboxamide riboside] was run?
Its value is under 0.01 µM.

What about the “Concentration of Adenosine” value ([1]; ionophore 10 μg/ml, control 0.124) of the same molecule?
The value was 0.513 µM.

And the “correction of the twofold lower adenosine secretion of HPRT-deficient cells” value ([1]; pretreatment)?
The value was “can be corrected by pretreatment”.

What about the “adenosine release from lymphoblasts” value ([2]; 48-hour pretreatment, 100-500 micromolar (FIG. 2)) of the same molecule?
Its value is “enhances adenosine release”.

What about the adenosine excreted ([2]; 48-hour pretreatment, 500 micromolar AICA riboside, about 1.4 without drug) of the same molecule?
Its adenosine excreted is “about 2.3 nanomoles of adenosine/10^6 WI-L2 cells”.

What about the “adenosine release from lymphoblasts” value ([2]; 18 hours preincubation before 2-deoxyglucose exposure (FIG. 7)) of the same molecule?
Its value is “enhanced adenosine release”.

And the “adenosine release from lymphoblasts” value ([2]; three-hour preincubation and four-hour incubation during 2-deoxyglucose treatment (FIGS. 8, 9))?
Its value is “increased adenosine release”.

What about the “reduction in paroxysmal ventricular contractions” value [3] of the same molecule?
The value was 39%.

And the ventricular fibrillation [3]?
Its ventricular fibrillation is “complete suppression”.

And the hexosaminidase released [4]?
Its hexosaminidase released is 17.6%.
